Consider one substance from patent US20250302913A1, “LACRIPEP PROMOTES NEUROREGENERATION AND MAINTAINS EPITHELIAL PROGENITOR CELL IDENTITY” (The Regents of The University of California, priority 2022, published 2025).

One test relates to CD4+ T cells. In words: CD4+ T cell infiltration of cornea and lacrimal gland. The format is in vivo, mouse. The note with it: day 15. From the text:
We next tested whether lacripep restored basal cell identity and barrier function by reducing immune cell infiltration. Prolonged desiccating stress from reduced tear production elicits an immune response in which activated CD4+ T cells home to the corneal epithelium and stroma (primarily accumulating at the limbal region) to modulate epithelial differentiation (17) and direct the development of autoimmune mediated dry eye (18).
For immunofluorescent analysis, 7 or 20 μm tissue sections were incubated with the following primary antibodies: mouse anti-ZO1 conjugated to Alexa594 (1:1000, Life Technologies, Cat 339194), rabbit anti-KRT6A (1:800, Cell Signaling, Cat 4912S), chicken anti-KRT14 (1:1500, Santa Cruz, Cat 515882), rat anti-Ki67 (1:200, Biolegend, 652405), rat anti-CD4 (1:200, Santa Cruz), rabbit anti-TUBB3 (1:500, Cell Signaling, Cat 5568S), and rat anti-Ecadherin (1:300, Life Technologies, Cat 131900). Antibodies were detected using Cy2-, Cy3- or Cy5-conjugated secondary Fab fragment antibodies (Jackson Laboratories), and nuclei were stained with Hoechst 33342 (1:3000, Sigma-Aldrich). Fluorescence was analyzed using a Zeiss LSM 900 confocal microscope or Zeiss Yokogawa Spinning disk confocal microscope with images assessed using NIH ImageJ software, as described below.
Quantification of CD4+ T cells in cornea and Lacrimal gland. […]

For the next test, the system named is Aire KO corneas. In words: RNAseq of corneas at day 7 of treatment. The format is in vivo, mouse. An excerpt:
To identify potential downstream targets of lacripep treatment, we elucidated changes in corneal gene expression and signaling pathways at the day 7 time point through RNAseq. Principal component analysis (PCA) identified major transcriptional differences between each treatment group (FIG. 6A). […] Subsequent analysis yielded enriched gene sets that were highly associated with neuronal gene ontology (GO) terms e.g., synapse (P=3.6E-47), visual perception (P=5.8E-49), neuron projection (P=2.1E-29), and response to stimulus (P=1.8E-19) (FIG. 4C). These included cohorts of genes expressed by nerves and/or corneal epithelial cells involved in axonogenesis and axon guidance e.g., Neurod2, Cntn4, ephrins (Epha5, Epha7, Epha8) and semaphorins (Sema6a, Sema7a); synapse formation and function e.g., synaptic vesicle membrane proteins (Syt1; synaptophysin-Syp) and synaptic vesicle exocytosis regulators (Rims1, Rims2); neuronal signaling e.g., GABA receptors (Gabra2, Gabrr1), glutamate receptors (Gria2, Gria4), and G protein signal-transducing mediators (Gnb3, Gng4); and neurotransmitter transport e.g. glutamate transporters (Slc17a7) and GABA transporters (Slc6a1, Slc32a1) (FIG. 4D). Analysis of corneas treated with lacripep or PBS versus untreated corneas further emphasized the ability of lacripep and not PBS alone to induce transcription of neuronal gene sets (FIG. 6B).
Total RNA was collected at 7 days of treatment and purified using RNAaqueous and DNase reagents according to the manufacturer's instructions (Ambion, Houston, TX, USA). RNA quality was assessed using the Agilent 2100 BioAnalyzer, and samples with an RNA integrity ≥6.0 were included for RNA sequencing. The synthesis of mRNA libraries was performed by Novogene Corporation Inc. according to their protocols. RNA library was formed by ploy A capture (or rRNA removal), RNA fragmentation by covaris or enzyme digestion and reverse transcription of cDNA. Sequencing was performed as described below.
RNA libraries were sequenced on an Illumina NovaSeq 6000. Depths of 20-30 million 150 bp paired-end reads were generated for each sample. Quality control metrics were performed on raw sequencing reads using the FASTQC v0.11.9 application (76). Reads were mapped to the UCSC Mus musculus genome mm 10 (NCBI build v38) using Spliced Transcripts Alignment to a Reference (STAR) (77). At least 90% of the reads were successfully mapped. Reads aligning to the mm 10 build were quantified against Ensembl Transcripts release 93 using Partek® E/M (Partek's optimization of the expectation maximization algorithm, Partek Inc, St. Louis, MO, USA), which disregarded any reads that aligned to more than one location or more than one gene at a single location. […]

In the next test the target is T1, syndecan-1 (SDC1) (Homo sapiens, UniProt P18827).
T1 sequence (P18827 23-310): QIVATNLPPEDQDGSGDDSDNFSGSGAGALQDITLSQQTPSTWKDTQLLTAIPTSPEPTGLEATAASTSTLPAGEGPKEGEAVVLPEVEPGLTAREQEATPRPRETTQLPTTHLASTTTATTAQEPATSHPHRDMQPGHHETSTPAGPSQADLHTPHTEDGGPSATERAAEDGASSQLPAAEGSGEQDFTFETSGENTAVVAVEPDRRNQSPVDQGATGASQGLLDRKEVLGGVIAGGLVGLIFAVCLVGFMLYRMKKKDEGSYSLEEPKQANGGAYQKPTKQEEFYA
To be noted: cited from earlier work.

Another test deals with KRT14+ basal cells. The experiment in a line: Basal progenitor identity (KRT14/KRT6A) and proliferation (Ki67) in cornea. The format is in vivo, mouse. The note with it: 2 wks treatment; Aire KO cornea. From the text:
Although it has been well established that basal progenitor cells (also referred to as transit amplifying cells (13)) undergo mitosis and migration (14) to give rise to the barrier forming suprabasal epithelial and stratified squamous epithelial cells, the impact of dry eye disease on basal cell identity and differentiation remains largely unknown. Thus, we questioned whether basal cell identity was altered in the desiccated cornea through defining the cellular location of KRT6A, a marker of early epithelial cell differentiation in skin (15) and cultured cornea epithelial cells (16). Accordingly, we confirmed that KRT6A marks differentiated corneal epithelial cell types in vivo, as shown by its exclusive expression in KRT14-deficient suprabasal and superficial epithelial cells of healthy cornea at 7 wks of age (FIG. 1G). […] To determine if changes in cell identity alters progenitor cell division, we analyzed the percentage of proliferating K14+ basal cells in treated and untreated corneas. […]
Quantification of corneal epithelial basal progenitor identity and proliferation. The number of basal KRT14+ and KRT14+ KRT6A+ basal epithelial cells were counted in 350 μm sections of central cornea. […] The number of proliferating epithelial progenitors (Ki67+ KRT14+) was presented as a percentage of total KRT14+ cells counted in 350 μm sections of central cornea.

The mark [1] stands for this setting: lacripep- versus PBS-treated corneas, Padj<0.05, 2-fold change cutoff.

Take “Ac-KQFIENGSEFAQKLLKKFSLLKPWA-NH2 [lacripep, amino terminus acetylated, carboxyl terminus aminated]”: in the test with CD4+ T cells (Aire KO corneas regardless of treatment), the “CD4+ T cell infiltration of cornea” value is recorded as “extensively infiltrated by CD4+ T cells”. In the test on CD4+ T cells (Aire KO lacrimal glands regardless of treatment), the “CD4+ T cell infiltration of lacrimal glands” value is given as “extensively infiltrated by CD4+ T cells”. For the same substance, the “expression of inflammatory mediators (IL1b, interferon response genes)” value in the test with Aire KO corneas (across diseased corneas) was “expressed at similar levels in all diseased corneas”. Moreover, the “expression of T cell markers, T cell response genes and macrophage markers” value in the test on Aire KO corneas (compared to WT controls) is reported as “remained significantly elevated”. In the test on Aire KO corneas (setting [1]), this substance registered a genes downregulated of 15 genes and a genes significantly upregulated of 818 genes. The “binding and activation of syndecan-1” value with syndecan-1 (SDC1) was “bind and activate”. In addition, in the test with KRT14+ basal cells, the “basal cell identity (KRT6A in KRT14+ basal cells)” value is “returned to that of WT tissue”.
